Here are results for 34 molecules from US10344032B2, “Agents for treating neurogenic inflammation and neuropathic hyperalgesia related disorders” (PÉCSI TUDOMÁNYEGYETEM, priority 2014, dated 2019).

Where a name gives a salt, the structure may show the parent alone.

As usually defined, the melting point is the temperature of the solid-liquid transition.

As to `Cc1c(C)n(Cc2ccco2)c2ncnc(NCCc3ccccc3)c12` [Example 32, (7-Furan-2-ylmethyl-5,6-dimethyl-7H-pyrrolo[2,3-d]pyrimidin-4-yl)-phenethyl-amine], the melting point is 221 to 223 °C. With `Cc1c(C)n(CCCN(C)C)c2ncnc(NCC(O)c3ccccc3)c12` (stereo not shown) (as salt: salt) [Example 18, 2-[7-(3-Dimethylamino-propyl)-5,6-dimethyl-7H-pyrrolo[2,3-d]pyrimidin-4-ylamino]-1-phenyl-ethanol] the figure was 209 to 212.9 °C; with `Cc1c(C)n(Cc2ccccc2)c2ncnc(NCCc3ccc(NC(=O)c4cccc(C(F)(F)F)c4)cc3)c12` [Example 48, N-{4-[2-(7-Benzyl-5,6-dimethyl-7H-pyrrolo[2,3-d]pyrimidin-4-ylamino)-ethyl]-phenyl}-3-trifluoromethyl-benzamide], 110 to 113 °C; with `Cc1c(C)n(Cc2ccccc2)c2ncnc(NCCc3ccccc3Cl)c12` [Example 42, (7-Benzyl-5,6-dimethyl-7H-pyrrolo[2,3-d]pyrimidin-4-yl)-[2-(2-chloro-phenyl)-ethyl]-amine], 223 to 227 °C.

`c1ccc(CCNc2ncnc3c2ccn3Cc2ccccc2)cc1` [Example 26, (7-Benzyl-7H-pyrrolo[2,3-d]pyrimidin-4-yl)-phenethyl-amine]: the melting point lay within 210 to 211.8 °C. Under `Nc1ccc(CCNc2ncnc3c2ccn3Cc2ccccc2)cc1` [Example 8, [2-(4-Amino-phenyl)-ethyl]-(7-benzyl-7H-pyrrolo[2,3-d]pyrimidin-4-yl)-amine] stands more than 260 °C; under `Cc1c(C)n(Cc2ccccc2)c2ncnc(NCCc3ccc(NS(=O)(=O)c4ccc(F)cc4F)cc3)c12` [Example 54, N-{4-[2-(7-Benzyl-5,6-dimethyl-7H-pyrrolo[2,3-d]pyrimidin-4-ylamino)-ethyl]-phenyl}-2,4-difluoro-benzenesulfonamide], 183 to 185 °C; under `COc1ccc(CCN(C)c2ncnc3c2c(C)c(C)n3Cc2cccc(Cl)c2)cc1OC` [Example 22, [7-(3-Chloro-benzyl)-5,6-dimethyl-7H-pyrrolo[2,3-d]pyrimidin-4-yl]-[2-(3,4-dimethoxy-phenyl)-ethyl]-methyl-amine], 178 to 180 °C. The molecule `COc1ccc(CCNc2ncnc3c2c(C)c(C)n3Cc2cccc(Cl)c2)cc1` [Example 23, [7-(3-Chloro-benzyl)-5,6-dimethyl-7H-pyrrolo[2,3-d]pyrimidin-4-yl]-[2-(4-methoxy-phenyl)-ethyl]-amine] had a melting point of 214 to 216 °C. Under `Cc1c(C)n(Cc2ccco2)c2ncnc(NCCc3cccc(F)c3)c12` [Example 33, [2-(3-Fluoro-phenyl)-ethyl]-(7-furan-2-ylmethyl-5,6-dimethyl-7H-pyrrolo[2,3-d]pyrimidin-4-yl)-amine] stands 89 to 90 °C; under `Cc1c(C)n(Cc2ccco2)c2ncnc(NCCc3ccccc3Cl)c12` [Example 31, [2-(2-Chloro-phenyl)-ethyl]-(7-furan-2-ylmethyl-5,6-dimethyl-7H-pyrrolo[2,3-d]pyrimidin-4-yl)-amine], 128.9 to 129.2 °C. Under `COc1ccc(CCNc2ncnc3c2ccn3Cc2ccccc2)cc1` [Example 13, (7-Benzyl-7H-pyrrolo[2,3-d]pyrimidin-4-yl)-[2-(4-methoxy-phenyl)-ethyl]-amine] stands 140 to 141 °C.

For `Cc1c(C)n(Cc2cccc(Cl)c2)c2ncnc(NCCc3ccc(NS(C)(=O)=O)cc3)c12` [Example 55, N-(4-{2-[7-(3-Chloro-benzyl)-5,6-dimethyl-7H-pyrrolo[2,3-d]pyrimidin-4-ylamino]-ethyl}-phenyl)-methanesulfonamide], the melting point lay in the range of 125 to 129 °C. On to `Cc1c(C)n(Cc2ccccc2)c2ncnc(NCCc3ccc(NC(=O)c4ccc(Cl)cc4)cc3)c12` [Example 49, N-{4-[2-(7-Benzyl-5,6-dimethyl-7H-pyrrolo[2,3-d]pyrimidin-4-ylamino)-ethyl]-phenyl}-4-chloro-benzamide], for which the melting point was more than 270 °C. Under `Clc1ccccc1CCNc1ncnc2c1ccn2Cc1ccccc1` [Example 25, (7-Benzyl-7H-pyrrolo[2,3-d]pyrimidin-4-yl)-[2-(2-chloro-phenyl)-ethyl]-amine] stands 180 to 182.3 °C; under `COc1ccc(CCNc2ncnc3c2c(C)c(C)n3Cc2cccc(Cl)c2)cc1OC` [Example 20, [7-(3-Chloro-benzyl)-5,6-dimethyl-7H-pyrrolo[2,3-d]pyrimidin-4-yl]-[2-(3,4-dimethoxy-phenyl)-ethyl]-amine], 118 to 120 °C. Under `Cc1c(C)n(CCCN(C)C)c2ncnc(NCCc3ccccc3Cl)c12` (as salt: salt) [Example 16, [2-(2-Chloro-phenyl)-ethyl]-[7-(3-dimethylamino-propyl)-5,6-dimethyl-7H-pyrrolo[2,3-d]pyrimidin-4-yl]-amine] stands 245 to 248 °C; under `Cc1c(C)n(Cc2ccccc2)c2ncnc(NCCc3ccc(NC(=O)Nc4cccc(C(F)(F)F)c4)cc3)c12` [Example 57, 1-{4-[2-(7-Benzyl-5,6-dimethyl-7H-pyrrolo[2,3-d]pyrimidin-4-ylamino)-ethyl]-phenyl}-3-(3-trifluoromethyl-phenyl)-urea], 161.9 to 162.9 °C; under `COc1ccc(CCNc2ncnc3c2ccn3Cc2ccccc2)cc1OC` [Example 24, (7-Benzyl-7H-pyrrolo[2,3-d]pyrimidin-4-yl)-[2-(3,4-dimethoxy-phenyl)-ethyl]-amine], 177.3 to 178.3 °C. With `CC(=O)Nc1ccc(CCNc2ncnc3c2c(C)c(C)n3Cc2ccco2)cc1` [Example 46, N-{4-[2-(7-Furan-2-ylmethyl-5,6-dimethyl-7H-pyrrolo[2,3-d]pyrimidin-4-ylamino)-ethyl]-phenyl}-acetamide] the figure was 206.8 to 208.1 °C; with `Cc1c(C)n(Cc2cccc(Cl)c2)c2ncnc(NCCc3ccc(NC(=O)c4ccccc4)cc3)c12` [Example 44, N-(4-{2-[7-(3-Chloro-benzyl)-5,6-dimethyl-7H-pyrrolo[2,3-d]pyrimidin-4-ylamino]-ethyl}-phenyl)-benzamide], 151 to 152.3 °C.

The molecule `COc1ccc(CCNc2ncnc3c2ccn3Cc2cncc(Br)c2)cc1` [Example 38, [7-(5-Bromo-pyridin-3-ylmethyl)-7H-pyrrolo[2,3-d]pyrimidin-4-yl]-[2-(4-methoxy-phenyl)-ethyl]-amine] yielded a melting point of 100.4 to 100.7 °C. Under `Cc1c(C)n(CCCN(C)C)c2ncnc(NCCc3ccc(N)cc3)c12` (as salt: salt) [Example 12, [2-(4-Amino-phenyl)-ethyl]-[7-(3-dimethylamino-propyl)-5,6-dimethyl-7H-pyrrolo[2,3-d]pyrimidin-4-yl]-amine] stands 237.2 to 239.9 °C.

`COc1ccc(CCNc2ncnc3c2ccn3Cc2cncc(Br)c2)cc1OC` (as salt: salt) [Example 37, [7-(5-Bromo-pyridin-3-ylmethyl)-7H-pyrrolo[2,3-d]pyrimidin-4-yl]-[2-(3,4-dimethoxy-phenyl)-ethyl]-amine] registered a melting point of 119 to 120.4 °C. Under `Cc1c(C)n(CCCN(C)C)c2ncnc(NCCc3cccc(F)c3)c12` (as salt: salt) [Example 17, [7-(3-Dimethylamino-propyl)-5,6-dimethyl-7H-pyrrolo[2,3-d]pyrimidin-4-yl]-[2-(3-fluoro-phenyl)-ethyl]-amine] stands 239 to 240.2 °C; under `COc1ccc(CCNc2ncnc3c2c(C)c(C)n3CCCN(C)C)cc1` (as salt: salt) [Example 41, [7-(3-Dimethylamino-propyl)-5,6-dimethyl-7H-pyrrolo[2,3-d]pyrimidin-4-yl]-[2-(4-methoxy-phenyl)-ethyl]-amine], more than 250 °C.

The molecule `Cc1c(C)n(Cc2ccccc2)c2ncnc(NCCc3ccc(N4C(=O)c5ccccc5C4=O)cc3)c12` [Example 6, 2-{4-[2-(7-Benzyl-5,6-dimethyl-7H-pyrrolo[2,3-d]pyrimidin-4-ylamino)-ethyl]-phenyl}-isoindole-1,3-dione] displayed a melting point of 219 to 221 °C. Under `Cc1c(C)n(Cc2ccco2)c2ncnc(NCCc3ccc(N)cc3)c12` [Example 10, [2-(4-Amino-phenyl)-ethyl]-(7-furan-2-ylmethyl-5,6-dimethyl-7H-pyrrolo[2,3-d]pyrimidin-4-yl)-amine] stands 150 to 151.5 °C. Under `Cc1c(C)n(Cc2ccco2)c2ncnc(NCCc3ccc(O)cc3)c12` [Example 59, 4-[2-(7-Furan-2-ylmethyl-5,6-dimethyl-7H-pyrrolo[2,3-d]pyrimidin-4-ylamino)-ethyl]-phenol] stands 165 to 167 °C; under `Cc1c(C)n(Cc2cccc(Cl)c2)c2ncnc(NCCc3ccccc3Cl)c12` [Example 21, [7-(3-Chloro-benzyl)-5,6-dimethyl-7H-pyrrolo[2,3-d]pyrimidin-4-yl]-[2-(2-chloro-phenyl)-ethyl]-amine], 190 to 192 °C. With `Cc1c(C)n(Cc2ccco2)c2ncnc(NCC(O)c3ccccc3)c12` (stereo not shown) [Example 35, 2-(7-Furan-2-ylmethyl-5,6-dimethyl-7H-pyrrolo[2,3-d]pyrimidin-4-ylamino)-1-phenyl-ethanol] the figure was 167.5 to 168 °C; with `Cc1c(C)n(Cc2cccc(Cl)c2)c2ncnc(NCCc3cccc(F)c3)c12` [Example 19, [7-(3-Chloro-benzyl)-5,6-dimethyl-7H-pyrrolo[2,3-d]pyrimidin-4-yl]-[2-(3-fluoro-phenyl)-ethyl]-amine], 232 to 235 °C. For the molecule `Cc1c(C)n(Cc2cccc(Cl)c2)c2ncnc(NCCc3ccc(O)cc3)c12` [Example 61, 4-{2-[7-(3-Chloro-benzyl)-5,6-dimethyl-7H-pyrrolo[2,3-d]pyrimidin-4-ylamino]-ethyl}-phenol], the melting point lay within 167.7 to 170 °C. Under `Cc1c(C)n(Cc2ccccc2)c2ncnc(NCCc3ccc(NS(C)(=O)=O)cc3)c12` [Example 5, N-{4-[2-(7-Benzyl-5,6-dimethyl-7H-pyrrolo[2,3-d]pyrimidin-4-ylamino)-ethyl]-phenyl}-methanesulfonamide] stands 175.7 to 176.4 °C.
